Measured values published in patent publication US7700272B2, “Polynucleotides encoding acetylcholine-gated chloride channel subunits of Caenorhabditis elegans” (priority 2004, dated 2010).
Values joined by “and” are separate entries in the source; they are usually repeats but may differ in a detail not shown here. Equal entries are not always repeated. “Also recorded” adds a separate entry of the source. Where two headings read alike, the source gives them in different places.

Experiments:
ACC-2D6.3 channel [1] = molecular target: ACC-2D6.3 channel (Caenorhabditis elegans, UniProt Q18812); experiment: cell-based
From the text: (§1) For capped cRNA synthesis, cDNAs were subcloned into the pT7N vector, which contains a T7 RNA polymerase promoter, the 5′- and 3′-UTR of Xenopus laevis beta-globin, and an encoded poly(A+) tail (Cary R B, Klymkowsky M W, Evans R M, Domingo A, Dent J A, Backhus L E (1994) Vimentin's tail interacts with actin-containing structures in vivo. J Cell Sci 107:1609-1622.). The pT7NcDNA constructs were linearized with Sal I (ACC-2D6.3) or BamHI (ACC-1G6.4) and transcribed using the MEGAscript Kit (Ambion, Austin, Tex., USA). Synthesized cRNAs were recovered by LiCl precipitation and resuspended in nuclease-free H2O at final concentration of 1 microgram/ml.
(§2) Oocytes were harvested from mature female Xenopus leavis according to standard procedures (Goldin, A. L. (1992) Maintenance of Xenopus laevis and oocyte injection. Methods Enzymol. 207: 266-79.). To remove inner ovarian epithelium, thecal cell layer, and follicular cells, the ovarian pieces were placed in OR-2 solution: 82.5 mM NaCl, 2 mM KCl, 1 mM MgCl2, and 5 mM Hepes (pH 7.5) containing 1 mg/ml type I collagenase (Sigma, St Louis Mo., USA) either for 3 hours at 20° C. with gentle agitation or for 1 hour followed by manual defolliculization. The stage VI defolliculated oocytes were placed in ND96 solution (96 mM NaCl, 2 mM KCl, 1.8 mM CaCl2, 1 mM MgCl2, and 5 mM Hepes, pH7.5). Oocytes were injected with 40 nl of cRNA using the Nanoject system (Drummond Scientific, Broomall, Pa., USA). Injected oocytes were incubated at 20° C. in ND96 supplemented with […] gentamycin and […] pyruvate. Oocytes were allowed to express cRNA for two days before measurements were taken.
(§3) Two-electrode voltage-clamp recordings were performed using the AxoClamp 2B amplifier (Axon Instruments, Foster City, Calif., USA). Microelectrodes were pulled from borosilicate glass capillaries (Word Precision Instruments, Inc., Sarasota, Fla., USA) on the P-97 micropipette puller Sutter Instruments, Novato, Calif., USA). […] Each oocyte was placed in RC-12 recording chamber (Warner Instrument Inc., Hamden, Conn., USA) or a Maltese cross chamber (ALA Scientific Instruments, Westbury, N.Y., USA) and clamped at −80 mV. Data were acquired at 1 kHz using Clampex software (Axon Instruments, Foster City, Calif., USA).
(§4) Dose-response curves for agonists were generated by their applying the agonist in increasing concentrations followed by 3-9 min washes at each concentration. To determine EC50 and Hill coefficient agonist dose response curves were fit using the following equation: f(I)=(Imax[I]^n/(EC50^n+[I]^n))+Imin, where I is the normalized response to agonist at certain concentration, Imax is the maximal response elicited by a saturating concentration of agonist, EC50 is the concentration of agonist inducing half-maximal response, n is the Hill coefficient, and Imin is the normalized response at lowest agonist concentration.
(§5) The mean and standard error of the mean of peak current responses of at least three oocytes per experiment are represented.
(§6) All drugs were obtained from Sigma-Aldrich (St. Louis, Mo. USA) except imidicloprid (IMI) which was provided by Crompton Co. (Guelph, ON, Canada). Drugs were dissolved in ND96 except IMI, which was made as a stock solution in DMSO and diluted to working concentrations in ND96. If required, drug solutions were adjusted to pH 7.5 with either NaOH or HCl. Fresh solutions were prepared before measurements and stored at 4° C. for 1-5 days.

ACC-3D10.5 = experiment: Two-electrode voltage-clamp of Xenopus oocytes injected with ACC-3D10.5 cRNA; type: cell-based, C. elegans; conditions: 1 mM
Protocol: (§8) Oocytes were harvested from mature female Xenopus leavis according to standard procedures (Goldin, A. L. (1992) Maintenance of Xenopus laevis and oocyte injection. Methods Enzymol. 207: 266-79.). To remove inner ovarian epithelium, thecal cell layer, and follicular cells, the ovarian pieces were placed in OR-2 solution: 82.5 mM NaCl, 2 mM KCl, 1 mM MgCl2, and 5 mM Hepes (pH 7.5) containing 1 mg/ml type I collagenase (Sigma, St Louis Mo., USA) either for 3 hours at 20° C. with gentle agitation or for 1 hour followed by manual defolliculization. The stage VI defolliculated oocytes were placed in ND96 solution (96 mM NaCl, 2 mM KCl, 1.8 mM CaCl2, 1 mM MgCl2, and 5 mM Hepes, pH7.5). Oocytes were injected with 40 nl of cRNA using the Nanoject system (Drummond Scientific, Broomall, Pa., USA). Injected oocytes were incubated at 20° C. in ND96 supplemented with 100 mg/ml gentamycin and 550 mg/ml pyruvate. Oocytes were allowed to express cRNA for two days before measurements were taken.

ACC-4E9.9 = experiment: Two-electrode voltage-clamp of Xenopus oocytes injected with ACC-4E9.9 cRNA; type: cell-based, C. elegans; conditions: 1 mM
Protocol: as §8

ACC-2D6.3+ACC-3D10.5 = type: cell-based, C. elegans; conditions: 1 mM
Protocol: as §8

ACC-2D6.3+ACC-4E9.9 = type: cell-based, C. elegans; conditions: 1 mM
Protocol: as §8

ACC-2 Y100L = ACC-2 Y100L (Caenorhabditis elegans, UniProt Q18812, Y100L); experiment: Voltage-clamp of Xenopus oocytes expressing ACC-2 mutant Y100L; type: cell-based, C. elegans
Protocol: as §3, §4
(§7) These mutations are substitutions of Leu for Tyr at amino acid 100 (Y100L) and Tyr for Phe at amino acid 160 (F160Y).

ACC-2 F160Y = ACC-2 F160Y (Caenorhabditis elegans, UniProt Q18812, F160Y); experiment: Voltage-clamp of Xenopus oocytes expressing ACC-2 mutant F160Y; type: cell-based, C. elegans
Protocol: as §3, §4, §7

ACC-1G6.4 channel [2] = molecular target: T1, ACC-1G6.4 channel (Caenorhabditis elegans, UniProt Q21005); experiment: Two-electrode voltage-clamp of Xenopus oocytes expressing ACC-1G6.4 homomeric channel; type: cell-based, C. elegans
T1 construct: Agonist: percentage of maximal acetylcholine-elicited response; other: compound at 0.1 mM; Agonist: percentage of maximal acetylcholine-elicited response; other: compound at 0.2 mM; other: compound at 0.4 mM; other: compound at 0.8 mM; Agonist: percentage of maxim
From the text: as §1, §2, §3, §4, §5, §6

ACC-1G6.4 channel [3] = system: T2, ACC-1G6.4 channel; experiment: as above; type: cell-based, C. elegans; conditions: one range given for both channels
T2 construct: rows headed: evoked current as % of the maximal ACh-elicited current; other: text; maximal magnitude of ACh-elicited inward current; other: −80 mV
From the text: as §1, §2, §3, §4, §5, §6

ACC-2D6.3 channel [4] = experiment: cell-based
From the text: as §1, §2, §3, §4, §5, §6

[5] = system: Aplysia receptors mediating the slow desensitizing chloride-dependent response; conditions: cited from earlier work; for EC50: read-out: EC50 (range)
rat α9nAChRs = rat α9nAChRs (Rattus norvegicus, UniProt P43144); conditions: cited from earlier work
[6] = EC50 (agonist), oocytes clamped at −80 mV, wild type
[7] = concentration tested in brackets where printed
[8] = read-out: Agonist: percentage of maximal acetylcholine-elicited response

ACC-2D6.3 channel (Caenorhabditis elegans, UniProt Q18812), sequence (Q18812 whole entry, looked up): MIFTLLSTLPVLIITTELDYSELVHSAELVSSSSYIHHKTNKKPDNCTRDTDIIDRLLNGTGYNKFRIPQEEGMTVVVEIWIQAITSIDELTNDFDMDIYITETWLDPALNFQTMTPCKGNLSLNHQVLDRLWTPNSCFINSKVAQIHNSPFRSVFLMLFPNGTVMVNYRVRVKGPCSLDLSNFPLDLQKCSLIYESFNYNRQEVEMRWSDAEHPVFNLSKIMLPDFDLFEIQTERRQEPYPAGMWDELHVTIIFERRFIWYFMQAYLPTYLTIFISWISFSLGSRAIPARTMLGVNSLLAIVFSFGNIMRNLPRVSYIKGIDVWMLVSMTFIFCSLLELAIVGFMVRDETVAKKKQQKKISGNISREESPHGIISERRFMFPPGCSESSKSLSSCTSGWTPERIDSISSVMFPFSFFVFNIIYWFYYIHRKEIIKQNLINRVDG
rat α9nAChRs, sequence (P43144 26-479): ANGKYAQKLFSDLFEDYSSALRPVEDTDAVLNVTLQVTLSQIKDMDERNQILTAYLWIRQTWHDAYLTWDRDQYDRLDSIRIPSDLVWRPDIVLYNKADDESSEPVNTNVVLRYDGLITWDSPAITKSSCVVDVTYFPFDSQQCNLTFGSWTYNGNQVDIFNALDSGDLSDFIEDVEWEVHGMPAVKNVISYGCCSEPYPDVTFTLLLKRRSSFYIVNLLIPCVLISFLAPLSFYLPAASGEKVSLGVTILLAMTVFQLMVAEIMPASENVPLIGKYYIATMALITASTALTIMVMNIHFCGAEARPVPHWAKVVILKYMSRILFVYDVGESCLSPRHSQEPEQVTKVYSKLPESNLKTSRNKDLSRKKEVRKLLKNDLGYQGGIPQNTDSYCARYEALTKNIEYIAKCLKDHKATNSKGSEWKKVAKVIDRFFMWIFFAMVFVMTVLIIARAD
T1 sequence (Q21005 whole entry, looked up): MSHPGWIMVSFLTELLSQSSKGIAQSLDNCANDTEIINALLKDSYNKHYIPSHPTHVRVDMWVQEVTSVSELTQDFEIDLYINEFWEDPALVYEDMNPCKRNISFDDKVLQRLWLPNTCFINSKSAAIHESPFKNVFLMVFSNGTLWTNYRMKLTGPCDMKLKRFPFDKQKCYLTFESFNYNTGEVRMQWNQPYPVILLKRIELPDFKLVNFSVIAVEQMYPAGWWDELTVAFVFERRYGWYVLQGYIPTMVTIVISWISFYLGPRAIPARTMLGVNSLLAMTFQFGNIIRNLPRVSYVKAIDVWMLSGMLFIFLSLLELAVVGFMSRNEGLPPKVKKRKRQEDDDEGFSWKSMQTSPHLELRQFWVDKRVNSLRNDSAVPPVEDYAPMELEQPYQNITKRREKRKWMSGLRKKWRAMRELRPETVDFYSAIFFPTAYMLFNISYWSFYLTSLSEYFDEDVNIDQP
ACC-2 Y100L, sequence (Q18812 whole entry Y100L, looked up): as the sequence (Q18812 whole entry, looked up) above, with Y100L counted along it
ACC-2 F160Y, sequence (Q18812 whole entry F160Y, looked up): as the sequence (Q18812 whole entry, looked up) above, with F160Y counted along it

Compound: CC(=O)OCC[N+](C)(C)C [ACh, acetylcholine]
- estimated Hill coefficient (agonist) (ACC-2D6.3 channel [1]): 2.64±0.08
- EC50 (ACC-2D6.3 channel [1]; [6]): 9.54 ± 0.11 µM
- EC50 (ACC-2D6.3 channel [1]; EC50, Table 4): 9.5 µM
- current response (ACC-3D10.5): 10-30 nA
- response (in words) (ACC-4E9.9): no response
- current response (ACC-2D6.3+ACC-3D10.5): 50-60 nA
- response (in words) (ACC-2D6.3+ACC-4E9.9): did not respond
- EC50 (ACC-2 Y100L): 351 ± 33 µM
- EC50 (ACC-2 F160Y): 44 ± 1.8 µM

Compound: COC(=O)C1=CCCN(C)C1 [arecoline]
- estimated Hill coefficient (agonist) (ACC-1G6.4 channel [2]; agonist dose-response): 1.59±0.09
- agonist action (in words) (ACC-1G6.4 channel [2]; [7]): agonists; also recorded: strong agonist; also recorded: strongly
- antagonist action (in words) (ACC-1G6.4 channel [2]; [7]): did not inhibit the ACh response
- EC50 (ACC-1G6.4 channel [2]; oocytes clamped at −80 mV, read-out: EC50 (agonist)): 4.7 ± 0.11 µM
- evoked current as % of the maximal ACh-elicited current (ACC-1G6.4 channel [3]): 82-89%
- evoked current as % of the maximal ACh-elicited current (ACC-2D6.3 channel [1]): 82-89%
- EC50 (ACC-2D6.3 channel [1]; [6]): 754 ± 22 µM
- estimated Hill coefficient (agonist) (ACC-2D6.3 channel [1]; agonist dose-response): 2.66±0.23
- antagonist action (in words) (ACC-2D6.3 channel [1]; [7]): did not inhibit the ACh response

Compound: O=c1cccc2n1C[C@@H]1CNC[C@H]2C1 [cytisine]
- Antagonist: percentage decrease in a response to acetylcholine (ACC-1G6.4 channel [2]): 66.8 ± 3% and 95 ± 1.4%
- IC50 (ACC-1G6.4 channel [2]): ~10 µM
- agonist action (in words) (ACC-1G6.4 channel [2]): weak agonists and/or antagonists; also recorded: no agonistic activity
- antagonist action (in words) (ACC-1G6.4 channel [2]): only as an antagonist
- activation at 800 µM (ACC-1G6.4 channel [2]; [8]): 0%
- Agonist: percentage of maximal acetylcholine-elicited response (ACC-2D6.3 channel [1]): 15.5 ± 2.9%
- EC50 (ACC-2D6.3 channel [1]): ~1000 µM
- IC50 (ACC-2D6.3 channel [1]): ~100 µM
- concentrations at which channels responded (ACC-2D6.3 channel [4]): 800 to 1000 µM
- agonist action (in words) [5]: Weak partial agonist
- estimated relative effectiveness versus acetylcholine [5]: ~0.14
- EC50 [5]: ~100 µM
- IC50 (rat α9nAChRs): 43.1 µM
- agonist action (in words) (rat α9nAChRs): no agonistic activity
- antagonist action (in words) (rat α9nAChRs): Antagonist

Compound: CN1CCCC1c1cccnc1 (stereo not shown) [nicotine]
- EC50 (ACC-1G6.4 channel [2]): ~1000 µM
- IC50 (ACC-1G6.4 channel [2]): ~100 µM
- agonist action (in words) (ACC-1G6.4 channel [2]): weak agonists and/or antagonists; also recorded: very weak agonist; also recorded: poorly; also recorded: Weak partial agonist
- antagonist action (in words) (ACC-1G6.4 channel [2]): partial antagonist
- activation at 100 µM (ACC-1G6.4 channel [2]; [8]): 5.2 ± 1.2%
- activation at 1000 µM (ACC-1G6.4 channel [2]; [8]): 12 ± 2.7%
- EC50 (ACC-2D6.3 channel [1]): ~1000 µM
- antagonist action (in words) (ACC-2D6.3 channel [1]): no antagonistic
- concentrations at which channels responded (ACC-2D6.3 channel [4]): 800 to 1000 µM
- EC50 ([5]; Table 4, order of magnitude): ~100 µM
- agonist action (in words) [5]: Weak partial agonist
- agonist action (in words) (rat α9nAChRs): no agonistic activity
- antagonist action (in words) (rat α9nAChRs): Antagonist
